Here are results for 22 molecules from patent US9273057B2 (Bristol-Myers Squibb Company, priority 2012, dated 2016).

The target of this test is CK2A1 (CK2α/β) (Homo sapiens, UniProt P68400). Nature of the test: CK2 kinase assay, CK2A1 (CK2α/β). Format: biochemical. Conditions: Table A; read-out: CK2A1 (CK2α/β) (IC50).
Sequence of CK2A1 (CK2α/β) (P68400 whole entry, species assumed): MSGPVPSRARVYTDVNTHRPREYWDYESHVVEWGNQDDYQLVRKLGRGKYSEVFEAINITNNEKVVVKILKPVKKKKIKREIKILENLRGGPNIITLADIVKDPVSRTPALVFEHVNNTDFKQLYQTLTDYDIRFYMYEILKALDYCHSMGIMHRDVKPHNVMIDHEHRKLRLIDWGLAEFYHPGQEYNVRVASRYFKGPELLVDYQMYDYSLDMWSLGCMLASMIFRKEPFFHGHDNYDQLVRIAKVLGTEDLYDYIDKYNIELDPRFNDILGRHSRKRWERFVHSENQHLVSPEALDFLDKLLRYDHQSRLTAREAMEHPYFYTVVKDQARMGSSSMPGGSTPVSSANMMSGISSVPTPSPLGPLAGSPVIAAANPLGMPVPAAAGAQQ
Sequence of CK2A1 (CK2α/β) (P67870 whole entry partner, species assumed): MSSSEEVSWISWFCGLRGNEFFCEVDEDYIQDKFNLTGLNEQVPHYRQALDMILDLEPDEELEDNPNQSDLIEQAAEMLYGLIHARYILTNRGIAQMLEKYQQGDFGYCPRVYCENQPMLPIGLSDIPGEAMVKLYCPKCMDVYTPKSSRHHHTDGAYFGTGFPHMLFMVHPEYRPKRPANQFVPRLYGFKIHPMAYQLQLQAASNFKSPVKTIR
With `COC(=O)N1CCN(c2cc(C#N)cc(Nc3nc(NC4CC4)c4ncc(C#N)n4n3)c2Cl)CC1` [Example 67, methyl 4-(2-chloro-5-cyano-3-((7-cyano-4-(cyclopropylamino)imidazo[2,1-f] [1,2,4]triazin-2-yl)amino)phenyl)-1-piperazinecarboxylate], the IC50 is 480 pM.

Consider `COCCOC(=O)N1CCN(c2cc(C#N)cc(Nc3nc(NC4CC4)c4ncc(C#N)n4n3)c2Cl)CC1` [Example 68, 2-methoxyethyl 4-(2-chloro-5-cyano-3-((7-cyano-4-(cyclopropylamino)imidazo[2,1-f] [1,2,4]triazin-2-yl)amino)phenyl)-1-piperazinecarboxylate], for which the IC50 stood at 670 pM. Consider `C[C@@H](CN1CCN(c2cc(C#N)cc(Nc3nc(NC4CC4)c4ncc(C#N)n4n3)c2Cl)CC1)NS(C)(=O)=O` [Example 69, N-((1S)-2-(4-(2-chloro-5-cyano-3-((7-cyano-4-(cyclopropylamino)imidazo[2,1-f][1,2,4]triazin-2-yl)amino)phenyl)-1-piperazinyl)-1-methylethyl) methanesulfonamide], for which the IC50 was determined as 470 pM. For the molecule `CS(=O)(=O)CCN1CC(N2CCN(c3cc(C#N)cc(Nc4nc(NC5CC5)c5ncc(C#N)n5n4)c3Cl)CC2)C1` [Example 70], the IC50 was found to be 540 pM. For `CNCCOC(=O)N1CCN(c2cc(C#N)cc(Nc3nc(NC4CC4)c4ncc(C#N)n4n3)c2Cl)CC1` [Example 71, 2-(methylamino)ethyl 4-(2-chloro-5-cyano-3-((7-cyano-4-(cyclopropylamino)imidazo[2,1-f] [1,2,4]triazin-2-yl)amino)phenyl)-1-piperazinecarboxylate], the IC50 came out at 760 pM. For the molecule `CN1CC(N2CCN(c3cc(C#N)cc(Nc4nc(NC5CC5)c5ncc(C#N)n5n4)c3Cl)CC2)C1` [Example 72, 2-((2-chloro-5-cyano-3-(4-(1-methyl-3-azetidinyl)-1-piperazinyl)phenyl)amino)-4-(cyclopropylamino) imidazo[2,1-f][1,2,4] triazine-7-carbonitrile], the IC50 stood at 790 pM. For the molecule `CS(=O)(=O)N1CC(N2CCN(c3cc(C#N)cc(Nc4nc(NC5CC5)c5ncc(C#N)n5n4)c3Cl)CC2)C1` [Example 73], the IC50 came to 740 pM. The result for `N#Cc1cc(Nc2nc(NC3CC3)c3ncc(C#N)n3n2)c(Cl)c(N2CCN(C(=O)C3CC3)CC2)c1` [Example 74, 2-((2-chloro-5-cyano-3-(4-(cyclopropylcarbonyl)-1-piperazinyl)phenyl)amino)-4-(cyclopropylamino) imidazo[2,1-f][1,2,4] triazine-7-carbonitrile] reads 550 pM. The result for `N#Cc1cc(Nc2nc(NC3CC3)c3ncc(C#N)n3n2)c(Cl)c(N2CCN(C(=O)C(F)F)CC2)c1` [Example 75, 2-(2-chloro-5-cyano-3-(4-(2,2-difluoroacetyl)piperazin-1-yl)phenylamino)-4-(cyclopropylamino) imidazo[1,2-f][1,2,4] triazine-7-carbonitrile] reads 410 pM; that for `CC(=O)NCC(=O)N1CCN(c2cc(C#N)cc(Nc3nc(NC4CC4)c4ncc(C#N)n4n3)c2Cl)CC1` [Example 76, N-(2-(4-(2-chloro-5-cyano-3-((7-cyano-4-(cyclopropylamino)imidazo[2,1-f][1,2,4]triazin-2-yl)amino)phenyl)-1-piperazinyl)-2-oxoethyl)acetamide], 750 pM. Regarding `COCC(=O)N1CCN(c2cc(C#N)cc(Nc3nc(NC4CC4)c4ncc(C#N)n4n3)c2Cl)CC1` [Example 77], the IC50 is 690 pM. For `N#Cc1cc(Nc2nc(NC3CC3)c3ncc(C#N)n3n2)c(Cl)c(N2CCN(C(=O)CO)CC2)c1` [Example 78, 2-(2-chloro-5-cyano-3-(4-(2-hydroxyacetyl)piperazin-1-yl)phenylamino)-4-(cyclopropylamino) imidazo[1,2-f][1,2,4] triazine-7-carbonitrile], the IC50 stood at 410 pM. Under `CC(C)(O)C(=O)N1CCN(c2cc(C#N)cc(Nc3nc(NC4CC4)c4ncc(C#N)n4n3)c2Cl)CC1` [Example 79, 2-((2-chloro-5-cyano-3-(4-(2-hydroxy-2-methylpropanoyl)-1-piperazinyl)phenyl)amino)-4-(cyclopropylamino) imidazo[2,1-f][1,2,4] triazine-7-carbonitrile] stands 530 pM; under `N#Cc1cc(Nc2nc(NC3CC3)c3ncc(C#N)n3n2)c(Cl)c(N2CCN(C(=O)CCN3CCCCC3)CC2)c1` [Example 82, 2-((2-chloro-5-cyano-3-(4-(3-(1-piperidinyl)propanoyl)-1-piperazinyl)phenyl)amino)-4-(cyclopropylamino) imidazo[2,1-f][1,2,4] triazine-7-carbonitrile], 790 pM. The result for `CC(=O)N1CCC[C@H]1C(=O)N1CCN(c2cc(C#N)cc(Nc3nc(NC4CC4)c4ncc(C#N)n4n3)c2Cl)CC1` [Example 83, 2-((3-(4-(1-acetyl-L-prolyl)-1-piperazinyl)-2-chloro-5-cyanophenyl)amino)-4-(cyclopropylamino) imidazo[2,1-f][1,2,4] triazine-7-carbonitrile] reads 630 pM.

Turning to `CC(=O)N1CCN(c2cc(C#N)cc(Nc3nc(NC4CC4)c4ncc(C#N)n4n3)c2Cl)CC1` [Example 85, 2-((3-(4-acetyl-1-piperazinyl)-2-chloro-5-cyanophenyl)amino)-4-(cyclopropylamino) imidazo[2,1-fl][1,2,4] triazine-7-carbonitrile], the IC50 was 570 pM. On to `N#Cc1cc(Nc2nc(NC3CC3)c3ncc(C#N)n3n2)c(Cl)c(N2CCN(C(=O)CC3CC3)CC2)c1` [Example 86], for which the IC50 came to 720 pM. Under `COCCC(=O)N1CCN(c2cc(C#N)cc(Nc3nc(NC4CC4)c4ncc(C#N)n4n3)c2Cl)CC1` [Example 87, 2-((2-chloro-5-cyano-3-(4-(3-methoxypropanoyl)-1-piperazinyl)phenyl)amino)-4-(cyclopropylamino) imidazo[2,1-f][1,2,4] triazine-7-carbonitrile] stands 760 pM; under `COCCOCC(=O)N1CCN(c2cc(C#N)cc(Nc3nc(NC4CC4)c4ncc(C#N)n4n3)c2Cl)CC1` [Example 88, 2-((2-chloro-5-cyano-3-(4-((2-methoxyethoxy)acetyl)-1-piperazinyl)phenyl)amino)-4-(cyclopropylamino) imidazo[2,1-f][1,2,4] triazine-7-carbonitrile], 600 pM. Turning to `CS(=O)(=O)CC(=O)N1CCN(c2cc(C#N)cc(Nc3nc(NC4CC4)c4ncc(C#N)n4n3)c2Cl)CC1` [Example 89, 2-((2-chloro-5-cyano-3-(4-((methylsulfonyl)acetyl)-1-piperazinyl)phenyl)amino)-4-(cyclopropylamino) imidazo[2,1-f][1,2,4] triazine-7-carbonitrile], the IC50 worked out at 2900 pM.

For the molecule `N#Cc1cc(Nc2nc(NC3CC3)c3ncc(C#N)n3n2)c(Cl)c(N2CCN(C(=O)CCO)CC2)c1` [Example 90, 2-(2-chloro-5-cyano-3-(4-(3-hydroxypropanoyl)piperazin-1-yl)phenylamino)-4-(cyclopropylamino) imidazo[1,2-f][1,2,4] triazine-7-carbonitrile], the IC50 is 530 pM. Under `CC(C)(O)CC(=O)N1CCN(c2cc(C#N)cc(Nc3nc(NC4CC4)c4ncc(C#N)n4n3)c2Cl)CC1` [Example 91] stands 490 pM.
